Measurements as given in EP0298820A1, “Peptide derivatives and their therapeutic application” (INSTITUT NATIONAL DE LA SANTE ET DE LA RECHERCHE MEDICALE …, priority 1987, dated 1989).

System: tumeur M₄
Assay: Inhibition of development of lung metastases (M4 tumour cells injected i.v. with peptide)
Format: in vivo, souris C57BL/6
Conditions: injected in tail vein with 10⁵ M₄ cells, lung colonies counted after 15 days, PBS control 117,5 ± 14,4
Method: On a utilisé la tumeur M₄, une sous-lignée obtenue par sélection d'un sarcome induit par le benzopyrène chez la souris C57BL/6 (Mantovani Int. J. Cancer, 22, 741, 1978).
Les cellules M₄ ont été désagrégées avec de la DNAse et de la collagènase pendant 30 minutes à 37°C. On a lavé les cellules deux fois avec du PBS et on les a remis en suspension dans le même tampon à la concentration de […]. On a injecté lentement dans le veine de la queue de souris C57BL/6 0,2 ml de PBS contenant différentes concentrations de peptide et 10⁵ cellules M₄/souris.
Au bout de 15 jours on a tué les souris et excisé les poumons, et on les a fixés avec une solution de Bouin. On a compté visuellement les colonies. Les résultats obtenus avec le peptide KQRGDF sont donnés dans le tableau suivant.

## H-KQRGDF-OH [KQRGDF, H-Lys-Gln-Arg-Gly-Asp-Phe-OH]
0,75 mg/souris
  Nombre de colonie: 25,3 ± 9,4
1,5 mg/souris
  Nombre de colonie: 0,2
3,0 mg/souris
  Nombre de colonie: 0
